From article PMC7698045, “Milk Protein-Derived Antioxidant Tetrapeptides as Potential Hypopigmenting Agents” (Antioxidants, 2020)
Read-outs that look alike come from different tables or passages of the source. Ends that are not written are not given here. Peptide text beside a SMILES is read from it.

Assays:
[1] = tested on: mushroom tyrosinase; assay: Mushroom tyrosinase inhibition test with L-DOPA as substrate; format: biochemical; settings: for IC50: L-DOPA 2.5 mM, mushroom tyrosinase 100 µg/mL (428 U/mL), 25 °C, 10 min, read-out: IC50 (tyrosinase inhibitory activity); for effect on dopachrome formation (UV-Vis scanning): dopachrome at 475 nm, L-DOPA and mushroom tyrosinase
Experimental: A mushroom tyrosinase inhibition test was carried out with L-DOPA as a substrate. Two hundred fifty microliters of phosphate buffer (0.1 M, pH 6.8), 250 µL of 2.5 mM L-DOPA, 200 µL of water and 25 µL of oligopeptide in DMSO at various concentrations were mixed. The reaction mixture was incubated at 25 °C for 10 min after the addition of 25 µL of aqueous mushroom tyrosinase solution (100 µg/mL, 428 U/mL) and then the UV absorbance was measured at 475 nm. The following equation was used to calculate the percentage of mushroom tyrosinase inhibition: % Tyrosinase Inhibition = (1 − A/B) × 100 where A represents the absorbance at 475 nm of the reaction mixture that contained the inhibitor and B represents the absorbance at 475 nm of a reference reaction mixture that contained DMSO instead of the inhibitor. The concentration of half-maximal inhibitory activity (IC50) values were determined by measuring the tyrosinase inhibitory activity at various peptide concentrations (10, 50, 100, 250 and 500 µM). Each experiment was performed in triplicate and the results were averaged.

[2] = Lipid peroxidation ferric thiocyanate assay (antioxidant activity); settings: lipid peroxidation inhibition after 24 h, 50 °C, dark, peptide 250 μM; for antioxidant activity relative to the original peptide (enhancement): original peptide set to 1.0
Experimental: Linoleic acid and Tween 20 were mixed in 0.1 M sodium phosphate buffer (pH 7.0) to prepare a linoleic acid emulsion (50 mM). […] These reaction mixtures were tightly capped by septa in glass vials and kept at 50 °C for 30 h under dark conditions. To evaluate the antioxidant activity of the oligopeptides by the quantification of lipid peroxidation inhibition, the ferric thiocyanate assay was used with some modifications. An aliquot of the reaction mixture (25 µL) was withdrawn at intervals and mixed with 1.175 mL of 75% ethanol, 25 µL of 20 mM ferrous chloride in 3.5% HCl and 25 µL of 30% ammonium thiocyanate. The absorbance was measured at 500 nm after 3 min, which was when the color development by the ferric thiocyanate complex was maximal. Each experiment was conducted in triplicate and the results were averaged.

[3] = tested on: B16F10 cells; assay: Melanogenesis inhibition test in α-MSH-stimulated B16F10 cells; format: cell-based
Experimental: (§1) B16F10 cells were cultured in DMEM that was supplemented with 10% (v/v) fetal bovine serum (FBS), 50 μg/mL streptomycin and 50 U/mL penicillin at 37 °C in 5% CO2. Mel-Ab cells were cultured in DMEM with 10% (v/v) FBS, 100 nM 12-O-tetradecanoylphorbol-13-acetate (TPA), 1 nM cholera toxin (CT), 50 μg/mL streptomycin and 50 U/mL penicillin at 37 °C in 5% CO2.
(§2) The effects of the inhibitors (peptides and arbutin) on melanin formation in Mel-Ab cells and B16F10 cells were evaluated. B16F10 cells (5 × 10^3 per well) were cultured in 96-well plates and incubated with the samples (1, 5, 10, 50 and 100 μM) in a complete medium that contained α-MSH for 4 days. Then, the medium was collected from each well and the optical densities were measured at 405 nm. Mel-Ab cells (5 × 10^4 per well) were cultured in 6-well plates and incubated with the samples (1, 5, 10, 50 and 100 μM) in the complete medium for 3 days. Next, the treated cells were then dissolved in 1 mL of 1 N NaOH at 100 °C for 30 min and centrifuged for 20 min at 16,000 g, after which the optical densities of the supernatants were measured at 400 nm.
The percentage of melanin content was calculated via following equation: % melanin content = (A/B) × 100 where A represents the optical density of the sample-treated group and B represents the optical density of the untreated control group. […]

[4] = tested on: phosphorylation of CREB at serin-133; settings: 100 µM, α-MSH-treated B16F10 cells
Experimental: For the Western blot analysis, B16F10 cells were seeded into 6-well plates. After 24 h, the cultured medium was replaced with serum-free DMEM and incubated for another 24 h. Then, the cells were treated with samples in new serum-free media and incubated for 0–360 min. Cells were lysed with RIPA buffer containing protease inhibitor cocktail and phosphatase inhibitor cocktail. Protein concentration was determined using the Bicinchoninic acid (BCA) protein assay kit (Thermo Scientific, Rockford, IL, USA). Protein (20 μg) samples were separated on 4–20% polyacrylamide gels and then transferred to polyvinylidene fluoride (PVDF) membranes (#1704156, Bio-Rad, Hercules, CA, USA), which were blocked with 5% nonfat dry milk in Tris buffered saline solution containing 0.1% Tween 20. The blots were incubated with the primary antibodies at 4 °C overnight. Membrane-bound primary antibodies were detected using HRP-conjugated secondary antibodies and chemiluminescent substrate. Digital images of the blotted membranes were obtained and analyzed using ChemiDoc XRS+ Systems with Image Lab Software (Version 5.1) (Bio-Rad). The relative protein expression of p-cAMP response element-binding protein (CREB) was normalized to that of CREB and glyceraldehyde 3-phosphate dehydrogenase (GAPDH).

[5] = tested on: Mel-Ab cells; assay: Melanogenesis inhibition test in Mel-Ab cells; format: cell-based, mouse
Experimental: as §1, §2
The percentage of melanin content was calculated via following equation: % melanin content = (A/B) × 100 where A represents the optical density of the sample-treated group and B represents the optical density of the untreated control group. All the tests were conducted independently three times. Each experiment was performed in triplicate and the results were averaged.

In the case of “Methionine-histidine-isoleucine-arginine amide [MHIR]”, the “tyrosinase inhibition mode (Lineweaver-Burk plot)” value ([1]; Km values increase and Vmax values decrease with increasing peptide concentration) is reported as “mixed-mode of inhibition”, the IC50 [1] is reported as 83 µM and the “effect on dopachrome formation (UV-Vis scanning)” value [1] is reported as “sufficiently suppress dopachrome formation”. For the same molecule, the “antioxidant activity relative to the original peptide (enhancement)” value [2] was 1.3–1.8 times, the “suppression of melanin production” value ([3]; 50 µM, B16F10 cells) was “up to 80%” and the “suppression of phosphorylation of CREB” value ([4]; 10 min) was 18%. The “suppression of phosphorylation of CREB” value ([4]; 180 min) was 37%, the “reduction of melanin content” value ([5]; 5 μM) was 30% and the “reduction of melanin content” value ([5]; 100 µM, 3 days) was 57%.

With “histidine-isoleucine-arginine-leucine amide [HIRL]” the IC50 [1] was 70 µM, the “effect on dopachrome formation (UV-Vis scanning)” value [1] was “sufficiently suppress dopachrome formation” and the “decrease of antioxidant activity relative to the original peptide” value [2] was “more than 50%”. For the same molecule, the “antioxidant activity relative to the original peptide (enhancement)” value [2] was 1.3–1.8 times and the “reduction of melanin content” value ([5]; 100 µM, 3 days) was 33%.

In the case of “MHIRL-NH2 [MHIRL, methionine-histidine-isoleucine-arginine-leucine amide]”, the “reduction of melanin content” value ([5]; 100 µM, 3 days) is reported as 28%.

With `CC[C@H](C)[C@H](NC(=O)[C@H](Cc1c[nH]cn1)NC(=O)[C@H](CCSC)NC(C)=O)C(=O)N[C@@H](CCCNC(=N)N)C(N)=O` [Ac-MHIR] (Ac-MHIR-NH2) the “inhibition of melanin production (in words)” value ([3]; α-MSH treated B16F10 cells, various concentrations) was “barely inhibits melanin production”.
